Results from US20260217677A1, “ORGANIC COMPOUNDS AS NLRP3 INHIBITORS” (KODIAK SCIENCES, INC., priority 2023, published 2026).

system: IL-1β release in U937 cells after NLRP3 activation; assay: IL-1β release inhibition in U937 cells (MSD V-Plex); settings: Homo sapiens, U-937, read-out: IL-1β IC50, Table 3; PMA-differentiated U937 cells, 1 μg/mL LPS 3 h, compound 30 min, 10 mM nigericin 1 h
Description: Differentiating media was prepared by adding 20 nM phorbol 12-myristate 13-acetate (PMA) (AdipoGen AG-CN2-0010-M005) to growth medium. A cell suspension was prepared with differentiating media at 500K cells/mL. […] Plates were placed in an incubator for 90 hours. […] Differentiating media was removed and priming media was added to each well. The plates were placed in the incubator for three (3) hours. 20 mM compound DMSO stock solutions were prepared and were further diluted to 0.4 mM; This solution was serially diluted 6 times in a 1:5 ratio. A solvent control was included.
After three (3) hours of priming, all the media was removed. Next, assay media with compounds was added in duplicate columns. The plate was placed in an incubator for 30 min. Media with a final concentration of 10 mM nigericin was then added for one (1) hour. The supernatant was collected and frozen immediately at −80° C. The plate was transferred to −20° C. the next day and for later determination of cytokine IL-1ß levels.
The release of IL-1ß into the cell media was determined with the MSD® Multi-Spot Assay System (V-Plex, IL-1ß kit, K151KPD). Following the manufacturer's protocol (Alternate Protocol 3, Dilute-In-Plate), the level of IL-1ß in the above collected supernatant plate was measured using electro-chemiluminescent signals. Using MSD DISCOVERY WORKBENCH® analysis software, the signals were converted to the concentration of IL-1ß in each well. The IC50 values of the compounds were calculated using fitted non-linear regression curve in Graph Pad Prism software. The detection range of IL-1ß using MSD kit was approximately 0.15 to 600 μg/mL (based on various lots of standards purchased from MSD).

Row | SMILES | IC50 [nM]
1 | Cc1cc(N[C@@H]2CCCN(CC(=O)N3CCC(C)(O)CC3)C2)nnc1-c1ccc(C(F)(F)F)cc1O [Example 55, (R)-2-(3-((6-(2-Hydroxy-4-(trifluoromethyl)phenyl)-5-methylpyridazin-3-yl)amino)piperidin-1-yl)-1-(4-hydroxy-4-methylpiperidin-1-yl)ethan-1-one] | < 5
2 | O=C(CN1CCC[C@@H](Nc2nnc(-c3ccc(C(F)(F)F)cc3O)c3c2COC3)C1)N1CC2(CCC(O)CC2)C1 [Compound 25, (R)-2-(3-((4-(2-Hydroxy-4-(trifluoromethyl)phenyl)-5,7-dihydrofuro[3,4-d]pyridazin-1-yl)amino)piperidin-1-yl)-1-(7-hydroxy-2-azaspiro[3.5]nonan-2-yl)ethan-1-one] | 5 to 50
3 | Cc1cc(N[C@@H]2CCCN(CC(=O)N3CC4(CCC(O)CC4)C3)C2)nnc1-c1ccc(C(F)(F)F)cc1O [Compound 17, (R)-2-(3-((6-(2-Hydroxy-4-(trifluoromethyl)phenyl)-5-methylpyridazin-3-yl)amino)piperidin-1-yl)-1-(7-hydroxy-2-azaspiro[3.5]nonan-2-yl)ethan-1-one] | < 5
4 | Cc1cc(N[C@@H]2CCCN(CC(=O)N3CCC(CO)CC3)C2)nnc1-c1ccc(C(F)(F)F)cc1O [Example 58, (R)-2-(3-((6-(2-Hydroxy-4-(trifluoromethyl)phenyl)-5-methylpyridazin-3-yl)amino)piperidin-1-yl)-1-(4-(hydroxymethyl)piperidin-1-yl)ethan-1-one] | 5 to 50
5 | Oc1cc(C(F)(F)F)ccc1-c1nnc(N[C@@H]2CCCN(C[C@H]3C[C@H](O)C3)C2)c2c1COC2 [Example 59, 2-(4-(((R)-1-(((1r,3R)-3-Hydroxycyclobutyl)methyl)piperidin-3-yl)amino)-5,7-dihydrofuro[3,4-d]pyridazin-1-yl)-5-(trifluoromethyl)phenol] | < 5
6 | Cc1cc(N[C@@H]2CCCN(CC(=O)N3CCC(O)C3)C2)nnc1-c1ccc(C(F)(F)F)cc1O (stereo partly drawn) [Compound 1, 2-((R)-3-((6-(2-Hydroxy-4-(trifluoromethyl)phenyl)-5-methylpyridazin-3-yl)amino)piperidin-1-yl)-1-(3-hydroxypyrrolidin-1-yl)ethan-1-one] | 5 to 50
7 | Cc1c(N[C@@H]2CCCN(C(=O)C34CC(O)(C3)C4)C2)nnc(-c2ccc(C(F)(F)F)cc2O)c1C [Example 67, (R)-(3-((6-(2-hydroxy-4-(trifluoromethyl)phenyl)-4,5-dimethylpyridazin-3-yl)amino)piperidin-1-yl) (3-hydroxybicyclo[1.1.1]pentan-1-yl)methanone] | 5 to 50
8 | O=C(CN1CCC[C@@H](Nc2nnc(-c3ccc(C(F)(F)F)cc3O)c3c2COC3)C1)N1CC[C@@H](O)C1 [Example 27, 2-((R)-3-((4-(2-hydroxy-4-(trifluoromethyl)phenyl)-5,7-dihydrofuro[3,4-d]pyridazin-1-yl)amino)piperidin-1-yl)-1-((R)-3-hydroxypyrrolidin-1-yl) ethan-1-one] | 5 to 50
9 | Cc1cc(N[C@@H]2CCCN(C3CCN(C4CC(O)C4)CC3)C2)nnc1-c1ccc(C(F)(F)F)cc1O (single isomer, unassigned) [Example 38A] | 5 to 50
10 | Cc1cc(N[C@@H]2CCCN(CCN3CC[C@@H](O)C3)C2)nnc1-c1ccc(C(F)(F)F)cc1O [Compound 3, (R)-1-(2-((R)-3-((6-(2-Hydroxy-4-(trifluoromethyl)phenyl)-5-methylpyridazin-3-yl)amino)piperidin-1-yl)ethyl)pyrrolidin-3-ol] | > 500
11 | Cc1cc(N[C@@H]2CCCN(CCN3CCC(O)CC3)C2)nnc1-c1ccc(C(F)(F)F)cc1O [Compound 7, (R)-1-(2-(3-((6-(2-Hydroxy-4-(trifluoromethyl)phenyl)-5-methylpyridazin-3-yl)amino)piperidin-1-yl)ethyl)piperidin-4-ol] | 5 to 50
12 | Cc1c(N[C@@H]2CCCN(CC(=O)N3CCC(O)CC3)C2)nnc(-c2ccc(C(F)(F)F)cc2O)c1C [Example 30, (R)-2-(3-((6-(2-Hydroxy-4-(trifluoromethyl)phenyl)-4,5-dimethylpyridazin-3-yl)amino)piperidin-1-yl)-1-(4-hydroxypiperidin-1-yl)ethan-1-one] | 5 to 50
13 | Cc1c(N[C@@H]2CCCN(CC3CC(O)C3)C2)nnc(-c2ccc3sccc3c2O)c1C (stereo partly drawn) [Example 74, 5-(6-(((R)-1-(((1r,3R)-3-Hydroxycyclobutyl)methyl)piperidin-3-yl)amino)-4,5-dimethylpyridazin-3-yl)benzo[b]thiophen-4-ol] | < 5
14 | Cc1cc(N[C@@H]2CCCN(CC(=O)N3CCC(O)CC3)C2)nnc1-c1ccc2sccc2c1O [Example 49, 2-[(3R)-3-{[6-(4-hydroxy-1-benzothiophen-5-yl)-5-methylpyridazin-3-yl]amino}piperidin-1-yl]-1-(4-hydroxypiperidin-1-yl)ethanone] | < 5
15 | Cc1cc(N[C@@H]2CCCN(CC(=O)N3CC[C@@H](O)C3)C2)nnc1-c1ccc(C(F)(F)F)cc1O [Compound 12, 2-((R)-3-((6-(2-Hydroxy-4-(trifluoromethyl)phenyl)-5-methylpyridazin-3-yl)amino)piperidin-1-yl)-1-((R)-3-hydroxypyrrolidin-1-yl)ethan-1-one] | < 5
16 | Cc1cc(N[C@@H]2CCCN(CC(=O)N3CCC4(CC3)CC(O)C4)C2)nnc1-c1ccc(C(F)(F)F)cc1O [Compound 15, 2-[(3R)-3-({6-[2-Hydroxy-4-(trifluoromethyl)phenyl]-5-methylpyridazin-3-yl}amino)piperidin-1-yl]-1-{2-hydroxy-7-azaspiro[3.5]nonan-7-yl}ethanone] | < 5
17 | Cc1cc(N[C@@H]2CCCN(C3CCC(O)CC3)C2)nnc1-c1ccc(C(F)(F)F)cc1O (single isomer, unassigned) [Example 53] | < 5
18 | Cc1cc(N[C@@H]2CCCN(CC(=O)N3CC(O)C3)C2)nnc1-c1ccc(C(F)(F)F)cc1O [Compound 8, (R)-2-(3-((6-(2-Hydroxy-4-(trifluoromethyl)phenyl)-5-methylpyridazin-3-yl)amino)piperidin-1-yl)-1-(3-hydroxyazetidin-1-yl)ethan-1-one] | 5 to 50

same assay, conditions: Homo sapiens, U-937, read-out: IL-1β IC50, Table 4; PMA-differentiated U937 cells, 1 μg/mL LPS 3 h, compound 30 min, 10 mM nigericin 1 h

Row | SMILES | IC50 [nM]
19 | Cc1cc(N[C@@H]2CCCN(C3CCN(CCN)CC3)C2)nnc1-c1ccc(C(F)(F)F)cc1O [Example 98, (R)-2-(6-((1′-(2-Aminoethyl)-[1,4′-bipiperidin]-3-yl)amino)-4-methylpyridazin-3-yl)-5-(trifluoromethyl)phenol] | 50 to 500
20 | Oc1cc(C(F)(F)F)ccc1-c1nnc(N[C@@H]2CCCN(C3CCNCC3)C2)c2c1COC2 [Example 100, (R)-2-(4-([1,4′-Bipiperidin]-3-ylamino)-5,7-dihydrofuro[3,4-d]pyridazin-1-yl)-5-(trifluoromethyl)phenol] | 5 to 50
21 | Cc1cc(N[C@@H]2CCCN(C3CC(N)C3)C2)nnc1-c1ccc(C(F)(F)F)cc1O (stereo in doubt) [Example 91, 2-(6-(((R)-1-((1s*,3S*)-3-aminocyclobutyl)piperidin-3-yl)amino)-4-methylpyridazin-3-yl)-5-(trifluoromethyl)phenol] | 5 to 50
22 | Cc1cc(N[C@@H]2CCCN(CC(=O)N3CCC4(CC3)CC(N)C4)C2)nnc1-c1ccc(C(F)(F)F)cc1O [Example 82] | 5 to 50
23 | Cc1cc(N[C@@H]2CCCN([C@H]3C[C@H](N)C3)C2)nnc1-c1ccc(C(F)(F)F)cc1O (relative stereo) [Example 90, 2-(6-(((R)-1-((1r*,3R*)-3-Aminocyclobutyl)piperidin-3-yl)amino)-4-methylpyridazin-3-yl)-5-(trifluoromethyl)phenol] | 5 to 50
24 | Cc1cc(N[C@@H]2CCCN(C3CCN(C(=O)N4CCNCC4)CC3)C2)nnc1-c1ccc(C(F)(F)F)cc1O [Example 86, (R)-(3-((6-(2-hydroxy-4-(trifluoromethyl)phenyl)-5-methylpyridazin-3-yl)amino)-[1,4′-bipiperidin]-1′-yl) (piperazin-1-yl)methanone] | 5 to 50
25 | Cc1cc(C(F)(F)F)cc(O)c1-c1ccc(N[C@@H]2CCCN(C3CNC3)C2)nn1 [Example 88, (R)-2-(6-((1-(Azetidin-3-yl)piperidin-3-yl)amino)pyridazin-3-yl)-3-methyl-5-(trifluoromethyl)phenol] | 5 to 50
26 | Cc1cc(N[C@@H]2CCCN(C3CNC3)C2)nnc1-c1ccc(C(F)(F)F)cc1O [Example 84, (R)-2-(6-((1-(Azetidin-3-yl)piperidin-3-yl)amino)-4-methylpyridazin-3-yl)-5-(trifluoromethyl)phenol] | 5 to 50
27 | Cc1cc(N[C@@H]2CCCN(C3CC(N)C3)C2)nnc1-c1ccc(C(F)(F)F)cc1O (stereo partly drawn) [Example 89, (R)-2-(6-((1-(3-Aminocyclobutyl)piperidin-3-yl)amino)-4-methylpyridazin-3-yl)-5-(trifluoromethyl)phenol] | 5 to 50
28 | Cc1cc(N[C@@H]2CCCN(C(=O)C(F)(F)CN)C2)nnc1-c1ccc(C(F)(F)F)cc1O [Example 96, (R)-3-Amino-2,2-difluoro-1-(3-((6-(2-hydroxy-4-(trifluoromethyl)phenyl)-5-methylpyridazin-3-yl)amino)piperidin-1-yl) propan-1-one] | 5 to 50
29 | Cc1cc(N[C@@H]2CCCN(CC(=O)N(C)CCN)C2)nnc1-c1ccc(C(F)(F)F)cc1O [Example 79, (R)—N-(2-Aminoethyl)-2-(3-((6-(2-hydroxy-4-(trifluoromethyl)phenyl)-5-methylpyridazin-3-yl)amino)piperidin-1-yl)-N-methylacetamide] | 50 to 500
